Read-outs that look alike come from different tables or passages of the source.
Legend:
[1] = test system: Human Multiple myeloma cell line (MM.1S); assay: Inhibition of MM.1S cell proliferation (CellTiter luminescent viability); format: cell-based; conditions: Homo sapiens, MM1.S, 96 hours; for inhibition at 0.01 µM: 10 nM, read-out: Inhibition Rate at 10 nM (%); for inhibition at 0.5 µM: 500 nM, read-out: Inhibition Rate at 500 nM (%)
Description: (§1) The tumor cells used herein were cultured in a cell culture medium listed in table 3 at 37 °C in an incubator with 5% CO2. Prior to experimentation, all cell lines used were correctly identified by STR profiling, and tested negative for mycoplasma contamination using a mycoplasma detection kit through routine screenings.
(§2) The IC50 values of the compounds of the present disclosure (including the compounds in Table 1, Table 2, and Examples 1-468) were determined using the CellTiter-Meiluncell Luminescent Cell Viability Assay Kit from Dalian Meilun Biotech Co., Ltd. The detailed procedure is as follows: Tumor cells were seeded in 96-well cell culture plates at the densities specified in Table 4. On the following day, the test compounds of the present disclosure were subjected to serial dilution. The dilution can be performed according to one of the following two methods: • (1) The first dilution method: The test compounds of the present disclosure (including the compounds in Table 1, Table 2, and Examples 1-468) were subjected to 5-fold serial dilutions starting from a highest concentration of 2000 μM, resulting in a total of 9 concentrations from high to low (2000, 400, 80, 16, 3.2, 0.64, 0.128, 0.0256, 0.00512 μM). Subsequently, 0.5 μL of the test compound dilution was transferred into the 96-well plate containing the cells, with each well containing 100 μL of cell culture medium. […] Into the 96-well plate, the diluted test compounds and corresponding detection reagents were added, resulting in final test compound concentrations of 500 nM and 10 nM, respectively. The experimental procedure is described below using the diluted 2 μM test compound as an example.
(§3) 0.5 μL of the aforementioned diluted compound of the present disclosure (including the compounds in Table 1, Table 2, and Examples 1-468) was added to the seeded cells in 100 μL of medium, yielding a final test compound concentration of 10 nM. After the cells were treated with the compounds of the present disclosure for a specified period, the cell viability assay reagent was added to the culture medium according to the kit's instructions to determine cell viability. […] All controls were treated using the same procedure as the compounds of the present disclosure. The growth inhibition curves for the compounds of the present disclosure were plotted using Prism GraphPad software, and the IC50 values were calculated therefrom.

[2] = test system: Human myeloid monocytic leukemia cell line (MV-4-11); assay: Inhibition of MV-4-11 cell proliferation (CellTiter luminescent viability); format: cell-based; conditions: Homo sapiens, MV4-11, 96 hours; for inhibition at 0.01 µM: MV-4-11, 10 nM, read-out: Inhibition Rate at 10 nM (%); for inhibition at 0.5 µM: MV-4-11, 500 nM, read-out: Inhibition Rate at 500 nM (%)
Description: as §1, §2, §3

[3] = Table IL1, BCR-ABL inhibitor-based
[4] = Table IL2, BCR-ABL inhibitor-based

For CNC(=O)c1ccccc1Nc1cc(Nc2cc(C)c(C3CCN(Cc4ccc5c(c4)CN(N4CCC(=O)NC4=O)C5=O)CC3)cc2OC(C)C)ncc1C(F)(F)F [GT-07663, 2-((2-((4-(1-((2-(2,4-dioxotetrahydropyrimidin-1(2H)-yl)-1-oxoisoindolin-5-yl)methyl)piperidin-4-yl)-2-isopropoxy-5-methylphenyl)amino)-5-(trifluoromethyl)pyridin-4-yl)amino)-N-methylbenzamide], the inhibition at 0.01 µM ([1]; Table IG1, FAK inhibitor-based) was 5 to 10% and the inhibition at 0.5 µM ([1]; Table IG1, FAK inhibitor-based) was 40 to 60%.
For CNC(=O)c1ccccc1Nc1cc(Nc2cc(C)c(C3CCN(Cc4ccc5c(c4)C(=O)N(N4CCC(=O)NC4=O)C5=O)CC3)cc2OC(C)C)ncc1C(F)(F)F [GT-07664, 2-((2-((4-(1-((2-(2,4-dioxotetrahydropyrimidin-1(2H)-yl)-1,3-dioxoisoindolin-5-yl)methyl)piperidin-4-yl)-2-isopropoxy-5-methylphenyl)amino)-5-(trifluoromethyl)pyridin-4-yl)amino)-N-methylbenzamide], the inhibition at 0.01 µM ([1]; Table IG1, FAK inhibitor-based) was 20 to 30% and the inhibition at 0.5 µM ([1]; Table IG1, FAK inhibitor-based) was 40 to 60%.
For O=C1CCN(N2C(=O)c3ccc(CN4CCN(C5CCN(c6ncc(C(=O)Nc7ccc(OC(F)(F)Cl)cc7)cc6-c6cc[nH]n6)CC5)CC4)cc3C2=O)C(=O)N1 [GT-08227, N-(4-(chlorodifluoromethoxy)phenyl)-6-(4-(4-((2-(2,4-dioxotetrahydropyrimidin-1(2H)-yl)-1,3-dioxoisoindolin-5-yl)methyl)piperazin-1-yl)piperidin-1-yl)-5-(1H-pyrazol-3-yl)nicotinamide], the inhibition at 0.01 µM [1, 3] was 20 to 30% and the inhibition at 0.5 µM [1, 3] was 20 to 30%.
For CN(c1cccc(CNc2nc(Nc3ccc(N4CCN(CC5CCN(c6ccc7c(c6)C(=O)N(N6CCC(=O)NC6=O)C7=O)CC5)CC4)cc3)ncc2C(F)(F)F)c1)S(C)(=O)=O [GT-08246, N-(3-(((2-((4-(4-((1-(2-(2,4-dioxotetrahydropyrimidin-1(2H)-yl)-1,3-dioxoisoindolin-5-yl)piperidin-4-yl)methyl)piperazin-1-yl)phenyl)amino)-5-(trifluoromethyl)pyrimidin-4-yl)amino)methyl)phenyl)-N-methylmethanesulfonamide], the inhibition at 0.01 µM ([1]; Table IG1, FAK inhibitor-based) was 30 to 40% and the inhibition at 0.5 µM ([1]; Table IG1, FAK inhibitor-based) was 30 to 40%.
Cc1ccc(C(=O)Nc2ccc(CN3CCN(CC4CCN(c5cccc6c5C(=O)N(N5CCC(=O)NC5=O)C6=O)CC4)CC3)c(C(F)(F)F)c2)cc1C#Cc1cnc2cccnn12 [GT-08353, N-(4-((4-((1-(2-(2,4-dioxotetrahydropyrimidin-1(2H)-yl)-1,3-dioxoisoindolin-4-yl)piperidin-4-yl)methyl)piperazin-1-yl)methyl)-3-(trifluoromethyl)phenyl)-3-(imidazo[1,2-b]pyridazin-3-ylethynyl)-4-methylbenzamide] gave an inhibition at 0.01 µM [2, 4] of 50 to 60% and an inhibition at 0.5 µM [2, 4] of 80 to 100%.
Cc1ccc(C(=O)Nc2ccc(N3CCN(CC4CCN(c5ccc6c(c5)C(=O)N(N5CCC(=O)NC5=O)C6=O)CC4)CC3)c(C(F)(F)F)c2)cc1C#Cc1cnc2cccnn12 [GT-08354, N-(4-(4-((1-(2-(2,4-dioxotetrahydropyrimidin-1(2H)-yl)-1,3-dioxoisoindolin-5-yl)piperidin-4-yl)methyl)piperazin-1-yl)-3-(trifluoromethyl)phenyl)-3-(imidazo[1,2-b]pyridazin-3-ylethynyl)-4-methylbenzamide] gave an inhibition at 0.01 µM [1, 3] of 15 to 20% and an inhibition at 0.5 µM [1, 3] of 20 to 30%.
Cn1c2ccncc2c2ccc(-c3cnc(N4CCN(CC5CCN(c6cccc7c6C(=O)N(N6CCC(=O)NC6=O)C7=O)CC5)CC4)c(C(F)(F)F)c3)cc21 [GT-08561, 2-(2,4-dioxotetrahydropyrimidin-1(2H)-yl)-4-(4-((4-(5-(5-methyl-5H-pyrido[4,3-b]indol-7-yl)-3-(trifluoromethyl)pyridin-2-yl)piperazin-1-yl)methyl)piperidin-1-yl)isoindoline-1,3-dione] was tested, and the inhibition at 0.01 µM ([2]; Table IJ2, Tau inhibitor-based) was 0 to 5% and the inhibition at 0.5 µM ([2]; Table IJ2, Tau inhibitor-based) was 50 to 60%.

— US20260364184A1, “COMPOUND BASED ON OXOISOINDOLINYL-SUBSTITUTED TETRAHYDROPYRIMIDINE-DIONE AND USE THEREOF” (GLUETACS THERAPEUTICS (SHANGHAI) CO., LTD., priority 2023, published 2026)
